Assay results as given in PMC7192969 (Journal of Pharmaceutical Analysis, 2019).

Legend:
SD rats = test: Freund's adjuvant induced hind paw edema, anti-inflammatory effect; assay type: in vivo, rat
[1] = Pharmacokinetics of aconitine in plasma after oral administration; assay type: in vivo; conditions: male, Sprague-Dawley, rat, 1 mg/kg; for half-life: t1/2z
[2] = 0 h, 10 mg/kg oral in combination with aconitine 1 mg/kg
[3] = 1 h, 10 mg/kg oral in combination with aconitine 1 mg/kg
[4] = 2 h, 10 mg/kg oral in combination with aconitine 1 mg/kg
[5] = 4 h, 10 mg/kg oral in combination with aconitine 1 mg/kg
[6] = 6 h, 10 mg/kg oral in combination with aconitine 1 mg/kg
[7] = Group A: aconitine at 1 mg/kg oral, alone
[8] = Group B: aconitine at 1 mg/kg + liquiritin at 10 mg/kg oral
[9] = Group D: aconitine at 1 mg/kg + glycyrrhizic acid at 10 mg/kg oral
[10] = Group E: aconitine at 1 mg/kg + glycyrrhetinic acid at 10 mg/kg oral

For `CC1(C)[C@@H](O)CC[C@]2(C)[C@H]3C(=O)C=C4[C@@H]5C[C@@](C)(C(=O)O)CC[C@]5(C)CC[C@@]4(C)[C@]3(C)CC[C@@H]12` [Glycyrrhetinic acid, glycyrrhetinic acid], the hind paw volume (SD rats; [2]) was 1.71 ± 0.05 mL, the hind paw volume (SD rats; [3]) was 1.80 ± 0.02∗# mL and the hind paw volume (SD rats; [4]) was 1.79 ± 0.03∗# mL. The hind paw volume (SD rats; [5]) was 1.91 ± 0.09∗ mL and the hind paw volume (SD rats; [6]) was 2.10 ± 0.06∗# mL.
In the case of `COc1ccc2c(c1)c(CC(=O)O)c(C)n2C(=O)c1ccc(Cl)cc1` [Indomethacin, reference compound], the hind paw volume (SD rats; 0 h, 1 mg/kg oral, alone) is reported as 1.67 ± 0.09 mL, the hind paw volume (SD rats; 1 h, 1 mg/kg oral, alone) is reported as 2.00 ± 0.11 mL and the hind paw volume (SD rats; 2 h, 1 mg/kg oral, alone) is reported as 2.04 ± 0.15 mL. For the same compound, the hind paw volume (SD rats; 4 h, 1 mg/kg oral, alone) was 2.15 ± 0.10∗ mL and the hind paw volume (SD rats; 6 h, 1 mg/kg oral, alone) was 2.19 ± 0.18∗ mL.
For `CCN1C[C@]2(COC)[C@H](O)C[C@H](OC)[C@@]34[C@@H]5C[C@@]6(O)[C@H](OC(=O)c7ccccc7)[C@@H]5[C@@](OC(C)=O)([C@@H]([C@H](OC)[C@H]23)[C@@H]14)[C@@H](O)[C@@H]6OC` [Aconitine, aconitine], the AUC(0-t) [1] was 33.7 ± 7.47 ng·h/mL, the AUC(0-t) [1, 7] was 25.8 ± 4.36 ng·h/mL and the AUC(0-t) [1, 8] was 30 ± 6.63 ng·h/mL. For the same compound, the AUC(0-t) [1, 9] was 29.1 ± 4.44 ng·h/mL, the AUC(0-t) [1, 10] was 19.9 ± 3.61 ng·h/mL and the AUC(0-inf) [1] was 34.5 ± 7.07 ng·h/mL. For the same compound, the AUC(0-inf) [1, 7] was 29.1 ± 6.15 ng·h/mL, the AUC(0-inf) [1, 8] was 31.9 ± 5.6 ng·h/mL and the AUC(0-inf) [1, 9] was 33.6 ± 6.93 ng·h/mL. The AUC(0-inf) [1, 10] was 20.7 ± 3.55 ng·h/mL, the Cmax [1] was 9.19 ± 1.38 ng/mL and the Cmax [1, 7] was 4.8 ± 0.966 ng/mL. For the same compound, the Cmax [1, 8] was 5.77 ± 0.831 ng/mL, the Cmax [1, 9] was 5.73 ± 0.7 ng/mL and the Cmax [1, 10] was 5.88 ± 0.73 ng/mL. The Tmax [1] was 0.667 ± 0.258 h, the Tmax [1, 7] was 1.08 ± 0.376 h and the Tmax [1, 8] was 1.67 ± 0.408 h. The Tmax [1, 9] was 1.42 ± 0.585 h, the Tmax [1, 10] was 0.833 ± 0.258 h and the half-life [1] was 131 ± 14.9 min. For the same compound, the half-life [1, 7] was 232 ± 61.2 min, the half-life [1, 8] was 196 ± 88.8 min and the half-life [1, 9] was 209 ± 63.6 min. For the same compound, the half-life [1, 10] was 114 ± 25.4 min, the hind paw volume (SD rats; 0 h, 1 mg/kg oral, alone) was 1.70 ± 0.06 mL and the hind paw volume (SD rats; 1 h, 1 mg/kg oral, alone) was 1.87 ± 0.10∗ mL. The hind paw volume (SD rats; 2 h, 1 mg/kg oral, alone) was 1.99 ± 0.15 mL, the hind paw volume (SD rats; 4 h, 1 mg/kg oral, alone) was 2.02 ± 0.12∗ mL and the hind paw volume (SD rats; 6 h, 1 mg/kg oral, alone) was 2.19 ± 0.05∗ mL.
For `O=C1C[C@@H](c2ccc(O[C@@H]3O[C@H](CO)[C@@H](O)[C@H](O)[C@H]3O)cc2)Oc2cc(O)ccc21` [Liquiritin, liquiritin], the hind paw volume (SD rats; [2]) was 1.70 ± 0.05 mL, the hind paw volume (SD rats; [3]) was 1.78 ± 0.12∗ mL and the hind paw volume (SD rats; [4]) was 1.81 ± 0.10∗# mL. For the same compound, the hind paw volume (SD rats; [5]) was 1.83 ± 0.09∗# mL and the hind paw volume (SD rats; [6]) was 1.96 ± 0.14∗# mL.
In the case of `CC1(C)[C@@H](O[C@H]2O[C@H](C(=O)O)[C@@H](O)[C@H](O)[C@H]2O[C@@H]2O[C@H](C(=O)O)[C@@H](O)[C@H](O)[C@H]2O)CC[C@]2(C)[C@H]3C(=O)C=C4[C@@H]5C[C@@](C)(C(=O)O)CC[C@]5(C)CC[C@@]4(C)[C@]3(C)CC[C@@H]12` [Glycyrrhizic acid, glycyrrhizic acid], the hind paw volume (SD rats; [2]) is reported as 1.72 ± 0.03 mL, the hind paw volume (SD rats; [3]) is reported as 1.92 ± 0.05∗ mL and the hind paw volume (SD rats; [4]) is reported as 1.96 ± 0.09∗ mL. For the same compound, the hind paw volume (SD rats; [5]) was 1.99 ± 0.11∗ mL and the hind paw volume (SD rats; [6]) was 2.14 ± 0.08∗ mL.
